Laboratory results as given in US20250204541A1, “GAS PHASE TREATMENT OF PRODUCE” (priority 2022, published 2025).

Legend:
Type in all cases: in vivo
[1] = system: Colletotrichum gloeosporioides (Cg); assay: Antifungal activity of vapor against Colletotrichum gloeosporioides in avocados; conditions: Example 9, vapor of 3 mL in a Petri dish for 72 hours, 7 days of incubation
Procedure: Example 7. The antifungal activity of AITC and DADS vapor against Colletotrichum gloeosporioides (Cg) was tested in avocados. All test pieces were wounded by removing the stem and infected by dispensing 1000 Cg spores suspended in 10 μL of water into the wound. The test groups consisted of avocados that were: untreated and uninfected; untreated and infected; treated by dipping in a solution of 0.1 g/L of prochloraz; exposed to the vapor of 3 mL of AITC disposed in a Petri dish; and exposed to the vapor of 3 mL of DADS disposed in a Petri dish. FIG. 9 quantifies the infection results. AITC vapor reduced the incidence of Cg mold by 97% compared to the untreated test group and 70% compared to the prochloraz treated test group. DADS vapor reduced the incidence of Cg mold by 60% compared to the untreated test group.
Example 8. The antifungal activity of a range of DADS vapor exposure times was tested against Cg in avocados. All test pieces were wounded by removing the stem and infected by dispensing 1000 Cg spores suspended in 10 μL of water into the wound. The test groups consisted of avocados that were: infected and untreated; and exposed to the vapor of 3 mL of DADS in a Petri dish for 24 hours, 48 hours, and 72 hours. FIG. 10 quantifies the infection results. Test group exposed to DADS vapor at all exposure times reduced the incidence of Cg mold compared to the untreated test group. A 24 hour DADS exposure reduced the incidence of Cg mold by 8%. A 48 hour DADS exposure reduced the incidence of Cg mold by 25%. A 72 hour DADS exposure reduced the incidence of Cg mold by 57%.
Example 9. The antifungal activity of a range of AITC and carvacrol vapor exposure times was tested against Cg in avocados. To measure the effect of the various treatments on ripening, durometer shore was taken after 7 days of incubation at ambient temperature and high humidity. All samples were wounded by removing the stem and infected by dispensing 1000 Cg spores suspended in 10 μL of water in the wound. The test groups consisted of avocados that were: infected and left untreated on the benchtop; infected and left untreated under a fume hood; exposed to the vapor of 3 mL of AITC in a Petri dish for 24 hours, 48 hours, and 72 hours; and exposed to the vapor of 3 mL of carvacrol in a Petri dish for 72 hours. FIG. 11 quantifies the infection results. […] All exposure times to AITC vapor reduced the incidence of Cg mold compared to the untreated samples. A 24 hour AITC exposure reduced the incidence of Cg mold by 90%. A 48 hour AITC exposure reduced the incidence of Cg mold by 97%. A 72 hour AITC exposure reduced the incidence of Cg mold by 83%. […]
Example 21. The antifungal activity of avocados exposed to AITC vapor and prochloraz was tested against Cg in avocados. To measure the effect of the various treatments on ripening, durometer shore was taken after 5 days of incubation at ambient temperature (about 20° C. to about 25° C.) and high humidity (about 88% relative humidity to about 93% relative humidity). All samples were wounded by removing the stem and infected by dispensing 1000 Cg spores suspended in 10 μL of water in the wound. Exposure to vapor was done by placing the avocados in an airtight container, dispensing AITC onto Whatman filter paper discs, suspending the discs in front of a battery-powered fan, closing the container and incubating the avocados for 30 minutes. After vapor exposure, the avocados were left at ambient temperature, high humidity, and assessed for Cg mold on day 5. Treatment groups consisted of avocados that were: exposed for 30 minutes to the vapor of 125 μL of AITC disposed on a filter paper disc; dipped in a solution of 0.1 g/L of prochloraz and placed to dry on a rack in front of a fan for 30 min; infected and left untreated; and uninfected and untreated. […] To prepare the 0.1 g/L of prochloraz, 10 mg of prochloraz was mixed with 10 mL of ethanol and 90 mL of water. […] A 24 hour AITC exposure reduced the incidence of Cg mold by 90%. […]

[2] = system: Penicillium digitatum (Pd); assay: Antifungal activity of vapor against Penicillium digitatum in wounded, infected mandarins; conditions: vapor of 62.5 μL AITC and/or 125 μL of all other compounds for 30 minutes, assessed after 6 days
avocados = assay: Durometer shore (ripening/firmness) of treated avocados; conditions: Example 21; Cg-infected avocados; after 5 days; AITC 125 μL vapor 30 minutes, prochloraz 0.1 g/L dip
Procedure: Example 9. The antifungal activity of a range of AITC and carvacrol vapor exposure times was tested against Cg in avocados. To measure the effect of the various treatments on ripening, durometer shore was taken after 7 days of incubation at ambient temperature and high humidity. All samples were wounded by removing the stem and infected by dispensing 1000 Cg spores suspended in 10 μL of water in the wound. The test groups consisted of avocados that were: infected and left untreated on the benchtop; infected and left untreated under a fume hood; exposed to the vapor of 3 mL of AITC in a Petri dish for 24 hours, 48 hours, and 72 hours; and exposed to the vapor of 3 mL of carvacrol in a Petri dish for 72 hours. FIG. 11 quantifies the infection results. […] All exposure times to AITC vapor reduced the incidence of Cg mold compared to the untreated samples. A 24 hour AITC exposure reduced the incidence of Cg mold by 90%. A 48 hour AITC exposure reduced the incidence of Cg mold by 97%. A 72 hour AITC exposure reduced the incidence of Cg mold by 83%.
Example 10. The antifungal activity of a range of AITC vapor exposure times were tested against Cg in avocados. To measure the effect of the various treatments on ripening, durometer shore was taken after 6 days of incubation at ambient temperature and high humidity. All samples were wounded by removing the stem and infected by dispensing 1000 Cg spores suspended in 10 μL of water in each wound. The test groups consisted of avocados that were: infected and left untreated on the benchtop; infected and left untreated in a fume hood; exposed to the vapor of 3 mL of AITC in a Petri dish for 24 hours, 48 hours, and 72 hours. FIG. 13 quantifies the infection results. […] All exposure times to AITC vapor reduced the incidence of Cg mold compared to the untreated samples.
Example 21. The antifungal activity of avocados exposed to AITC vapor and prochloraz was tested against Cg in avocados. To measure the effect of the various treatments on ripening, durometer shore was taken after 5 days of incubation at ambient temperature (about 20° C. to about 25° C.) and high humidity (about 88% relative humidity to about 93% relative humidity). All samples were wounded by removing the stem and infected by dispensing 1000 Cg spores suspended in 10 μL of water in the wound. Exposure to vapor was done by placing the avocados in an airtight container, dispensing AITC onto Whatman filter paper discs, suspending the discs in front of a battery-powered fan, closing the container and incubating the avocados for 30 minutes. After vapor exposure, the avocados were left at ambient temperature, high humidity, and assessed for Cg mold on day 5. Treatment groups consisted of avocados that were: exposed for 30 minutes to the vapor of 125 μL of AITC disposed on a filter paper disc; dipped in a solution of 0.1 g/L of prochloraz and placed to dry on a rack in front of a fan for 30 min; infected and left untreated; and uninfected and untreated. […] To prepare the 0.1 g/L of prochloraz, 10 mg of prochloraz was mixed with 10 mL of ethanol and 90 mL of water. […] A 24 hour AITC exposure reduced the incidence of Cg mold by 90%. […] The mean shore value for the untreated avocados was 28.8 (standard deviation (SD)=10.8). The mean shore value for the infected avocados was 47.3 (SD=11.8). The mean shore value of the positive control, prochloraz treated avocados was 44.3 (SD=14.7). The mean shore value of the AITC treated avocados was 61.1 (SD=10.5).
Durometer Shore Measurement: A Fruit Hardness Tester—HPE III Fff w/Sphere Ø 5.0 mm Test Anvil is used for the measurements. The Operating Procedure is as follows: • 1) At room temperature and 1 atm pressure, switch on the measuring device and press the hull or sleeve against the specimen so that the contact surface of the pressure plate rests on the fruit. […]

Cc1ccc(C(C)C)cc1O [carvacrol]
reduction of the incidence of Cg mold [1]: did not reduce the incidence of Cg mold

C=CCc1ccc(O)c(OC)c1 [eugenol]
performance against Pd compared with untreated samples [2]: performed better than the untreated samples

CCCN(CCOc1c(Cl)cc(Cl)cc1Cl)C(=O)n1ccnc1 [prochloraz, reference compound]
mean shore value (avocados): 44.3 (SD=14.7) shore
